Measured values reported in ChEMBL document CHEMBL2074351, “Characterization of the major metabolites of verapamil as substrates and inhibitors of P-glycoprotein” (J Pharmacol Exp Ther, 2000).

Tests used:
[1] = target: T1, ATP-dependent translocase ABCB1 (Homo sapiens, UniProt P08183); assay: TP_TRANSPORTER: transepithelial transport (basal to apical) in MDR1-expressing LLC-PK1 cells; assay type: functional, cell-based; conditions: pig
[2] = target: T1, ATP-dependent translocase ABCB1; assay: TP_TRANSPORTER: inhibition of Digoxin transepithelial transport (basal to apical) (Digoxin: 5 uM) in Caco-2 cells; assay type: functional, cell-based

T1 sequence (P08183 whole entry): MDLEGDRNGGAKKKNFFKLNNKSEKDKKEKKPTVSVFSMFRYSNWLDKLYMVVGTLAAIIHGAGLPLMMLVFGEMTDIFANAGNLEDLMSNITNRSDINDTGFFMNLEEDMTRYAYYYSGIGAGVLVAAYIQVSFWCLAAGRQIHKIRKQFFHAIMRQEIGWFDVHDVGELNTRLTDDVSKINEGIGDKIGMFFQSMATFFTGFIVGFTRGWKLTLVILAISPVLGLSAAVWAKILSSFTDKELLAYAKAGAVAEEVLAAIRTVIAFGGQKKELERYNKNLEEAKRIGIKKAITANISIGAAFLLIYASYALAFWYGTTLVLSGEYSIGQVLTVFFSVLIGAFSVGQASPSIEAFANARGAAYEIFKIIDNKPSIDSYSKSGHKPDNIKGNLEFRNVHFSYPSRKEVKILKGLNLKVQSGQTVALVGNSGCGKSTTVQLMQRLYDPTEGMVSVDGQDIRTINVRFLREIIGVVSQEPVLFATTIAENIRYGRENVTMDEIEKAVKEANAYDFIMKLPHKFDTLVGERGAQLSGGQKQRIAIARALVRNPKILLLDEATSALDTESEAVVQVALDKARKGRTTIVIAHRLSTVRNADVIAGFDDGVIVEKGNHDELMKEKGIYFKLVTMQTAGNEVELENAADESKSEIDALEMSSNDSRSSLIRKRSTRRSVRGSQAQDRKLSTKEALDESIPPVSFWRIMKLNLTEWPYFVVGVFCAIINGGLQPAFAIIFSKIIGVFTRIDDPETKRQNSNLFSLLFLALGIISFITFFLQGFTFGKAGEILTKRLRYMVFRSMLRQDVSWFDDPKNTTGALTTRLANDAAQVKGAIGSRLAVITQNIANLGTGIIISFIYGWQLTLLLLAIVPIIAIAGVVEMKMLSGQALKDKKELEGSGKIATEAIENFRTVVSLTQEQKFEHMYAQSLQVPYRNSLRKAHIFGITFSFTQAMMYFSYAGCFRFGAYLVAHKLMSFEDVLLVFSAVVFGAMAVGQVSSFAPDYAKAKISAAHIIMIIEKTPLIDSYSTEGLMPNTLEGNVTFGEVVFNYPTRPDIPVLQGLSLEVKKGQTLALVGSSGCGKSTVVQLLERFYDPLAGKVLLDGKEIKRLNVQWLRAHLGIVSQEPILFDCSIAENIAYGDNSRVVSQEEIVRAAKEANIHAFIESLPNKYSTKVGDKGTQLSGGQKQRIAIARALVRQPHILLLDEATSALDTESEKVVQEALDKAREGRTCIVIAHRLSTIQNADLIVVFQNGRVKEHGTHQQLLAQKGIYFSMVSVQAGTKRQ

For CNCCCC(C#N)(c1ccc(OC)c(OC)c1)C(C)C (stereo unspecified), which Activity [1] is on record?
The Activity was “substrate [+]”.

For COc1ccc([C@@](C#N)(CCCN)C(C)C)cc1OC, which Activity [1] is on record?
Its Activity is “substrate [+]”.

For COc1ccc(CCN(C)CCCC(C#N)(c2ccc(OC)c(OC)c2)C(C)C)cc1OC (stereo unspecified) [VERAPAMIL], which Activity [1] is on record?
The Activity was “substrate [+]”.

Which IC50 [2] does the source give for COc1ccc([C@@](C#N)(CCCN(C)CCc2ccc(OC)c(OC)c2)C(C)C)cc1O here?
The IC50 was 1600 nM.

For COc1ccc(CCNCCCC(C#N)(c2ccc(OC)c(OC)c2)C(C)C)cc1OC (stereo unspecified) [NORVERAPAMIL], which IC50 [2] is on record?
Its IC50 is 300 nM.

And the Activity [1]?
Its Activity is “substrate [+]”.
